Measured values reported in US20250353864A1, “INDAZOLE CONTAINING MACROCYCLES AND THEIR USE” (BLOSSOMHILL THERAPEUTICS, INC., priority 2022, published 2025).
pIC50: −log10 of the molar value.

What was measured:
Type in all cases: biochemical
[1] = target: EGFR Δ746-750/C797S mutant (Homo sapiens (Human), UniProt P00533, C797S/DEL746-750); assay: HotSpot radiometric kinase assay, EGFR Δ746-750/C797S mutant; settings: 10 μM ATP
How it was run: (§1)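 Enzyme and substrate pairs were exposed to inhibitor for roughly 20 min before radiolabelled ATP (10 μM final) was introduced; the reaction proceeded 120 min at ambient temperature in pH 7.5 buffer with 1% DMSO, and phosphorylated product was captured on P81 filters for IC50 determination.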

EGFR L858R/T790M mutant = EGFR L858R/T790M mutant (Homo sapiens (Human), UniProt P00533, L858R/T790M); assay: HotSpot radiometric kinase assay, EGFR L858R/T790M mutant; settings: 10 μM ATP
How it was run: as §1

[2] = target: EGFR L858R/T790M/C797S mutant (Homo sapiens (Human), UniProt P00533, C797S/L858R/T790M); assay: HotSpot radiometric kinase assay, EGFR L858R/T790M/C797S mutant; settings: 10 μM ATP
How it was run: as §1

EGFR WT = EGFR WT (Homo sapiens (Human), UniProt P00533); assay: HotSpot radiometric kinase assay (Reaction Biology), EGFR WT; settings: 10 μM ATP
How it was run: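 10 μM ATP (33P-labelled, final); 120 min RT; P81 filter capture, 0.75% phosphoric acid washes. Cpd preincubated ~20 min with enzyme/substrate, 20 mM Hepes pH 7.5, 10 mM MgCl2, 1% DMSO. IC50 by curve fit.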

EGFR Δ746-750 mutant = EGFR Δ746-750 mutant (Homo sapiens (Human), UniProt P00533, DEL746-750); assay: HotSpot radiometric kinase assay, EGFR Δ746-750 mutant; settings: 10 μM ATP
How it was run: as §1

EGFR (D770_N771insNPG) = EGFR (D770_N771insNPG) (Homo sapiens (Human), UniProt P00533, INS770NPG); assay: HotSpot radiometric kinase assay, EGFR (D770_N771insNPG); settings: 10 μM ATP, read-out: EGFR (Δ770_N771insNPG) IC50
How it was run: as §1

EGFR L858R mutant = EGFR L858R mutant (Homo sapiens (Human), UniProt P00533, L858R); assay: HotSpot radiometric kinase assay, EGFR L858R mutant; settings: 10 μM ATP
How it was run: as §1

Sequence of EGFR L858R/T790M mutant (P00533 25-1210 T790M/L858R): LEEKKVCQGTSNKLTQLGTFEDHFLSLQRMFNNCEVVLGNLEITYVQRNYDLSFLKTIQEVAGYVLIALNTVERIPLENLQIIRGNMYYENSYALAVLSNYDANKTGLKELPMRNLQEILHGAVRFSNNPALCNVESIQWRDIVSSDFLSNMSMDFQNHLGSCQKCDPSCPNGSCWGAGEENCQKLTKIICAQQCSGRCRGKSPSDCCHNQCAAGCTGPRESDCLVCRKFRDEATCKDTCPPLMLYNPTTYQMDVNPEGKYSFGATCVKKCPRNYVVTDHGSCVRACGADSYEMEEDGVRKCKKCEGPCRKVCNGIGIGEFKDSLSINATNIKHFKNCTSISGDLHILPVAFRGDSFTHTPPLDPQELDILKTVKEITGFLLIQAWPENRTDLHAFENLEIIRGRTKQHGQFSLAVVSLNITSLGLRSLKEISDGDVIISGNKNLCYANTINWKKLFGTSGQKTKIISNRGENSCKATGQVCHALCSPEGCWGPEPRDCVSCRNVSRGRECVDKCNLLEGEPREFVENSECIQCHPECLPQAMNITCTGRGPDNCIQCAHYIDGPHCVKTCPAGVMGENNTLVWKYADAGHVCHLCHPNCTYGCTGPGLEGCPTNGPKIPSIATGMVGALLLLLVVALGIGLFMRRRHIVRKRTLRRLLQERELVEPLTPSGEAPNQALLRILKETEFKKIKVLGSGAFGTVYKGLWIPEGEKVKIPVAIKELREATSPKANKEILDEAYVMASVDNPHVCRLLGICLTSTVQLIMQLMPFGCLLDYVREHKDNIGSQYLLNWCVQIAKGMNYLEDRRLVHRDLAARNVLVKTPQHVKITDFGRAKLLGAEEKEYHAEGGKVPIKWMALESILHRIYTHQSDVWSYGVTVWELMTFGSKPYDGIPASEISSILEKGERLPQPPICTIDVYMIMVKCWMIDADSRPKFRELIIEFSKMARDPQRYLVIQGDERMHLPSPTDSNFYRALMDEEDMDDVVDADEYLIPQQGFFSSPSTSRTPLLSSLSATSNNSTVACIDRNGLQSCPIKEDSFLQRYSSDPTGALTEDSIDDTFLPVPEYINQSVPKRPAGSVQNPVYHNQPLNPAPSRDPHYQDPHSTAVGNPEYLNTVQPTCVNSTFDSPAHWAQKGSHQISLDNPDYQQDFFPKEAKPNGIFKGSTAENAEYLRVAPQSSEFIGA
Sequence of EGFR L858R/T790M/C797S mutant (P00533 25-1210 T790M/C797S/L858R): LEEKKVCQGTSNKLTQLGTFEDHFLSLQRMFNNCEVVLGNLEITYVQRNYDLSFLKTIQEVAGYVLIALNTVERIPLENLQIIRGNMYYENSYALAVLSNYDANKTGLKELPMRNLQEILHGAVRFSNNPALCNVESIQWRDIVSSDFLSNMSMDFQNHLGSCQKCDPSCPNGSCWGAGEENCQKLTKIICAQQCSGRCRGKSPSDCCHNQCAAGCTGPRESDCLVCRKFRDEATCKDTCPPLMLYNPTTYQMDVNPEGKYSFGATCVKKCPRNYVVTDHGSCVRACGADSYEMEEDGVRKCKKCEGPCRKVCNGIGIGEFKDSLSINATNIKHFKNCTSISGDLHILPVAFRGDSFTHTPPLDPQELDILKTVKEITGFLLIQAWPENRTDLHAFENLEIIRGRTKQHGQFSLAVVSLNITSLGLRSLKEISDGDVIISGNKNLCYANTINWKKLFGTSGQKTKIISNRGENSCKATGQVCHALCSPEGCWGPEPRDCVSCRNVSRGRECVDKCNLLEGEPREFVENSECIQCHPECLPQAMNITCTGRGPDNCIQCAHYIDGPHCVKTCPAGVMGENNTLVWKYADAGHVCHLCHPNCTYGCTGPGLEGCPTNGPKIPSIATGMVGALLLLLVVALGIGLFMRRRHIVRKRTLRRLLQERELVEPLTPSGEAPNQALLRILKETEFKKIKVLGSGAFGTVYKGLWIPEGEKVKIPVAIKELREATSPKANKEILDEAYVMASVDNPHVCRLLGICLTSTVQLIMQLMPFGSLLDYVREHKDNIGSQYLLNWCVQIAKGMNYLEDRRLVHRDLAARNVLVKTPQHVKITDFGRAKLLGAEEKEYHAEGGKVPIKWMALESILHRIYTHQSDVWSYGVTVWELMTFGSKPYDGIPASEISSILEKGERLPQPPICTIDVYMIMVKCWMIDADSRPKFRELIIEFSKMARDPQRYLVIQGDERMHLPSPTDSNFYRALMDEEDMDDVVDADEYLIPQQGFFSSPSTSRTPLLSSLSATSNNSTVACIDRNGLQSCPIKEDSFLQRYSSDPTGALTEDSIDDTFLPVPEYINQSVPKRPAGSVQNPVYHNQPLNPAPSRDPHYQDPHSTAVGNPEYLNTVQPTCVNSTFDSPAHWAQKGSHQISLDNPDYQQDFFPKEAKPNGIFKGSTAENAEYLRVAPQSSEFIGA
Sequence of EGFR Δ746-750/C797S mutant (P00533 other isoform, or with tags, fused parts or gaps C797S/del 1-668/del 746-750 limits assumed): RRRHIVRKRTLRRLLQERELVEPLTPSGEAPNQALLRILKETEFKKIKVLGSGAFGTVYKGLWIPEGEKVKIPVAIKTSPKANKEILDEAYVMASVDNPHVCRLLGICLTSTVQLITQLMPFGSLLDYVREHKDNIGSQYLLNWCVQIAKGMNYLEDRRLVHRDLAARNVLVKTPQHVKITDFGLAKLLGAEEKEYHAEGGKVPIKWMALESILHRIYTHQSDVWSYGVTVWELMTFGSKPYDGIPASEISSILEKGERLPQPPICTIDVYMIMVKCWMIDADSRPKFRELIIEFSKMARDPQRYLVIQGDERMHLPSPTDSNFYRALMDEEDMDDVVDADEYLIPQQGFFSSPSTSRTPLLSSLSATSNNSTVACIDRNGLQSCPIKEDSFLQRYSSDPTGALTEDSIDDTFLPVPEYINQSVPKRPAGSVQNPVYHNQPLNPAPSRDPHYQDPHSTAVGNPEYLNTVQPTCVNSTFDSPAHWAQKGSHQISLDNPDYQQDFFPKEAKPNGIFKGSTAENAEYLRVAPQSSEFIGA
Sequence of EGFR L858R mutant (P00533 25-1210 L858R): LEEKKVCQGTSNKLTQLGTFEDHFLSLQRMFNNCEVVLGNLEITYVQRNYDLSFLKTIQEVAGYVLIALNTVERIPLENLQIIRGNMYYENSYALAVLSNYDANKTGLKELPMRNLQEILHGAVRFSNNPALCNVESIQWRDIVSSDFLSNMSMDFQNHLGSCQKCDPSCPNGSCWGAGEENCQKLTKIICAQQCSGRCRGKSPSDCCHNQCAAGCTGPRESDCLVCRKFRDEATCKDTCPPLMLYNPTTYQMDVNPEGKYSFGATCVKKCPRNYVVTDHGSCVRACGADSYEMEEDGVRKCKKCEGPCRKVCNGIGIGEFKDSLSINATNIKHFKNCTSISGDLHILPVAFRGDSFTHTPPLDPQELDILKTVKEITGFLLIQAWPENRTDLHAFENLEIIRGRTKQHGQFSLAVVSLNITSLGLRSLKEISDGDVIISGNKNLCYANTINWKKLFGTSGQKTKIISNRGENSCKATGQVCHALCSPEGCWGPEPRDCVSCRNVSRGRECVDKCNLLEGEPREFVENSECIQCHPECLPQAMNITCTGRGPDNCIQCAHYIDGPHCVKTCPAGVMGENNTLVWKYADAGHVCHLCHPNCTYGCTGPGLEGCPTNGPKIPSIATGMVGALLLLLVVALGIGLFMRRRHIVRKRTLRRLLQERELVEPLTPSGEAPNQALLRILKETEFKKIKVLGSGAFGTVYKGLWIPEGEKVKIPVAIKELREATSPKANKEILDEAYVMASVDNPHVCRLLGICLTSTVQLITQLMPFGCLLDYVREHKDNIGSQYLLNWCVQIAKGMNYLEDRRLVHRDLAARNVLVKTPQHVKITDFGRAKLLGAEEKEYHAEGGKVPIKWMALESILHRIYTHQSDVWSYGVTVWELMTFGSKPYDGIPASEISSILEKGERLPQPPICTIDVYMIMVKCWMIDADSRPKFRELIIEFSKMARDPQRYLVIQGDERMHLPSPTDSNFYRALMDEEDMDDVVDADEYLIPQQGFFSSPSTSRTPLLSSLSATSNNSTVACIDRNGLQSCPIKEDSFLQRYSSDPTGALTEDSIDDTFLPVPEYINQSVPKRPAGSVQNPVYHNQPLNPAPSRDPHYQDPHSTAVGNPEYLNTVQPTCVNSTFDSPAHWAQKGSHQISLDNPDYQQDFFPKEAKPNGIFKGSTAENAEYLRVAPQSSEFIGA
Sequence of EGFR (D770_N771insNPG) (P00533 other isoform, or with tags, fused parts or gaps del 1-668/ins NPG behind 770 limits assumed): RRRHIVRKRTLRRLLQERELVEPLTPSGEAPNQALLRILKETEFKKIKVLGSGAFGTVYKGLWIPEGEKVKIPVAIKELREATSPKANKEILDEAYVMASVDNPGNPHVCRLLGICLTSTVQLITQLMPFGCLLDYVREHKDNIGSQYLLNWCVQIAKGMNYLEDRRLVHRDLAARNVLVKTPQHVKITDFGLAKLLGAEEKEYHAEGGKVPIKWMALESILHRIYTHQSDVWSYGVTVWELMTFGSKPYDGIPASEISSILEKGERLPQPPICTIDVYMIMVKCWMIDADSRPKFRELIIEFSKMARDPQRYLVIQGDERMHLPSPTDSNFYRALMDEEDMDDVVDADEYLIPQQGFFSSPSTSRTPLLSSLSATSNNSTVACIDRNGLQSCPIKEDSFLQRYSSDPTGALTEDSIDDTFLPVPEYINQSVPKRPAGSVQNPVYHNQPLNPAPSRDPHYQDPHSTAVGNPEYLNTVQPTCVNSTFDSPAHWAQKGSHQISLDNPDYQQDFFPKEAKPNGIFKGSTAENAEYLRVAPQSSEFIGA

SMILES	pIC50 [1]	pIC50 (EGFR L858R/T790M mutant)	pIC50 [2]	pIC50 (EGFR WT)	pIC50 (EGFR Δ746-750 mutant)	pIC50 (EGFR (D770_N771insNPG))	pIC50 (EGFR L858R mutant)
CCOc1nn(CCO)c2c1/C=C/c1n[nH]c3ccc(cc13)-c1c(C)nn(C)c1O[C@H](C)CN(C1CC1)C2 [Example 204]	8.71	8.75	8.60	8.26	8.73	7.70	8.26
Cc1c2c(nn1[C@H]1CCNC[C@@H]1O)OCCCOc1c(cnn1C)-c1ccc3[nH]nc(c3c1)/C=C/2 (racemic) [Example 81, (rac)-4-[(17E)-8,16-dimethyl-2,8,11,12-tetrahydro-10H,15H-3,5-etheno[1,5]dioxacyclopentadecino[10,11-c:15,14-c′:6,7-c″ ]tripyrazol-15-yl]piperidin-3-ol]	7.48	8.77	8.13	7.36	7.53	7.39	7.78
Cc1c2c(nn1CCN1CCN(C)CC1)CN(C)C[C@H](C)Oc1c(cnn1C)-c1ccc3[nH]nc(c3c1)/C=C/2 [Example 90, (10S,17E)-8,10,12,16-tetramethyl-15-[2-(4-methylpiperazin-1-yl)ethyl]-2,10,11,12,13,15-hexahydro-8H-3,5-ethenotripyrazolo[3,4-f:3′,4′-j:4″,3″-n][1,4]oxazacyclopentadecine]	8.33	10.22	9.09	7.77	7.94	7.09	8.99
Cc1nn(CCO)c2c1/C=C/c1n[nH]c3ccc(cc13)-c1c(C)nn(C)c1O[C@@H](C)CN(C)C2 [Example 138, 2-[(10S,17E)-6,8,10,12,16-pentamethyl-2,8,10,11,12,13-hexahydro-14H-3,5-ethenotripyrazolo[3,4-f:3′,4′-j:4″,3″-n][1,4]oxazacyclopentadecin-14-yl]ethan-1-o]	8.85	9.21	9.26	7.62	8.44	7.07	8.46
Cn1ncc2c1OCCCOc1nn3ccn(C)c(=O)c3c1/C=C/c1n[nH]c3ccc-2cc13 [Example 91, (20E)-8,18-dimethyl-2,8,11,12-tetrahydro-10H-3,5-ethenodipyrazolo[3″,4″:10′,11′;4′″,3′″:14′,15′][1,5]dioxacyclopentadecino[6′,7′:3,4]pyrazolo[1,5-a]pyrazin-19(18H)-one]	< 6.00	6.40	< 6.00	< 6.00	< 6.00	< 6.00	< 6.00
Cc1nn([C@H]2CNC[C@@H]2O)c2c1/C=C/c1n[nH]c3ccc(cc13)-c1cnn(C)c1OCCCO2 (racemic) [Example 74, (rac)-4-[(17E)-8,16-dimethyl-2,8,11,12-tetrahydro-10H,14H-3,5-etheno[1,5]dioxacyclopentadecino[10,11-c:15,14-c′:6,7-c″ ]tripyrazol-14-yl]pyrrolidin-3-ol]	7.40	7.90	7.80	7.07	7.13	6.96	7.44
Cc1nn(C2CCN(C)C2)c2c1/C=C/c1n[nH]c3ccc(cc13)-c1cnn(C)c1CN(C)CCO2 (centres unmarked) [Example 118, (17E)-8,10,16-trimethyl-14-(1-methylpyrrolidin-3-yl)-2,9,10,11,12,14-hexahydro-8H-3,5-ethenotripyrazolo[3,4-f:4′,3′-j:4″,3″-n][1,4]oxazacyclopentadecine]	7.50	8.33	8.07	6.88	7.68	7.18	7.46
Cc1nn(C)c2c1/C=C/c1n[nH]c3ccc(cc13)-c1cnn(C)c1OCCN(C)C(=O)CO2 [Example 63, (19E)-8,12,16,18-tetramethyl-2,11,12,16-tetrahydro-8H,10H-3,5-ethenotripyrazolo[3,4-h:3′,4′-l:4″,3″- p][1,7,4]dioxazacycloheptadecin-13(14H)-one]	6.64	7.36	7.48	6.11	6.53	< 6.00	6.08
C[C@H]1CN(C)Cc2c(c(CN(C)C)nn2CCO)/C=C/c2n[nH]c3ccc(cc23)-c2cnn(C)c2O1 [Ex. 266, 2-{(10S,17E)-16-[(dimethylamino)methyl]-8,10,12-trimethyl-2,8,10,11,12,13-hexahydro-14H-3,5-ethenotripyrazolo[3,4-f:3′,4′-j:4″,3″-n][1,4]oxazacyclopentadecin-14-yl}ethan-1-ol]	6.24	6.55	7.22	< 6.00	6.01	< 6.00	< 6.00
CC(C)Oc1nn(CCO)c2c1/C=C/c1n[nH]c3ccc(cc13)-c1cnn(C)c1O[C@H](C)[C@H]1CCCN1C2 [Example 253, 2-[(8aR,9R,19E)-9,11-dimethyl-1-[(propan-2-yl)oxy]-7,8,8a,9,11,17-hexahydro-6H-14,16-ethenotripyrazolo[3,4-f:3′,4′-j:4″,3″-n]pyrrolo[2,1-c][1,4]oxazacyclopentadecin-3(4H)-yl]ethan-1-ol]	8.70	8.59	8.28	8.79	9.12	8.49	8.78
COCc1nn(C)c2c1/C=C/c1n[nH]c3ccc(cc13)-c1cnn(C)c1OCCCO2 [Ex. 11, (17E)-16-(methoxymethyl)-8,14-dimethyl-2,11,12,14-tetrahydro-8H,10H-3,5-etheno[1,5]dioxacyclopentadecino[10,11-c:15,14-c′:6,7-c″]tripyrazole]	6.10	6.81	6.66	< 6.00	6.07	< 6.00	5.80
CCOc1nn(CCO)c2c1/C=C/c1n[nH]c3ccc(cc13)-c1cnn(C)c1O[C@@H]1CN(C)C[C@H]1N(C)C2 (single isomer, unassigned) [Ex. 271]	6.37	7.25	7.50	< 6.00	6.33	< 6.00	5.80
C[C@H]1CN(C)Cc2c(c(O)nn2C)/C=C/c2n[nH]c3ccc(cc23)-c2cnn(C)c2O1 [Example 148, (10S,17E)-8,10,12,14-tetramethyl-2,10,11,12,13,14-hexahydro-8H-3,5-ethenotripyrazolo[3,4-f:3′,4′-j:4″,3″-n][1,4]oxazacyclopentadecin-16-ol]	7.63	8.37	8.56	6.43	7.46	6.39	7.37
Cc1c2c(nn1CCN1CCCC1)CN(C)C[C@@H](C)Oc1c(cnn1C)-c1ccc3[nH]nc(c3c1)/C=C/2 [Example 121, (10R,17E)-8,10,12,16-tetramethyl-15-[2-(pyrrolidin-1-yl)ethyl]-2,10,11,12,13,15-hexahydro-8H-3,5-ethenotripyrazolo[3,4-f:3′,4′-j:4″,3″- n][1,4]oxazacyclopentadecine]	7.38	8.21	7.89	6.53	7.39	6.55	7.03
